12 molecules from patent US7429612B2, “Indoline compound and medicinal use thereof” (Kyoto Pharmaceutical Industries, Ltd., priority 2002, dated 2008) can be followed below.

Series [1] can be described thus: Plasma concentration after oral administration. In kind it is in vivo, SD male rats. The conditions noted are these: 10 mg/kg oral, suspended in 5% gum arabic, HPLC. As to the method: A test compound (10 mg/kg) suspended in 5% gum arabic solution was forcibly administered orally to SD male rats weighing 200-250 g. At 0.5, 1, 3, 5 and 8 hours after administration, blood was taken without anesthesia and heparinized plasma was separated by conventional method. The concentration of the test compound in the plasma was determined by high performance liquid chromatography, the results of which are shown in Table 5.

For another series, the system named is hepatic ACAT. In words: Hepatic ACAT inhibitory activity (rabbit liver microsomes, [1-14C]-oleoyl CoA). In kind it is biochemical, Japanese white rabbits. The settings on record: Concentration: 10^-6 M; inhibition of cholesteryl oleate production vs control. The method, then:
A high cholesterol feed [a feed added with cholesterol (1%), Clea Japan, Inc.] was fed to male Japanese white rabbits weighing 2-2.5 kg at 100 g per day and the rabbits were bred for 4 weeks. The rabbits were killed by bleeding under anesthesia and liver was removed. The liver was homogenated, and the homogenate was centrifuged at 4° C. and 10,000 rpm for 15 min. The obtained supernatant was further centrifuged at 4° C. and 41,000 rpm for 60 minutes to give microsomal fractions. The microsomal suspension as an enzyme sample, dimethyl sulfoxide (DMSO, […]) or a test compound dissolved in DMSO (test compound solution 3 μl), and reaction substrate [1-^14C]-oleoyl CoA were added to 0.15 M phosphate buffer to the total amount of 300 μl. After incubation at 37° C. for 20 minutes, a chloroform-methanol mixture was added to stop the reaction. Water was added thereto and mixed, and the chloroform layer was separated. The solvent was evaporated to dryness, and the residue was redissolved in n-hexane. The mixture was subjected to thin layer chromatography using a silica gel plate. The spots of cholesteryl oleate on the silica gel plate were scraped, and quantitatively assayed on lo a liquid scintillation counter.
Background: Microsomes from liver hold many membrane-bound enzymes, among them those of drug oxidation.

Series [2] relates to THP-1 cell-derived macrophages. As to the kind of experiment: THP-1 cell-derived macrophage foam cell formation suppressing effect (cholesterol ester accumulation inhibitory effect). In kind it is cell-based. The conditions noted are these: Homo sapiens, THP-1, 72 h, Concentration: 10^-6 M, acetyl LDL, 3 days culture, read-out: foam cell formation inhibitory rate (%). The method, then: THP-1 (Dainippon Pharmaceutical Co., Ltd.) cells were passage cultured in RPMI-1640 medium supplemented with 10% fetal bovine serum (FBS), and the cells of passages 6-13 after purchase were used. The cells were suspended in FBS-containing RPMI-1640 medium to give a suspension having a concentration of 4×10^5 cells/mL. The cell suspension was inoculated to a 12 well microplate by 1 mL, and treated with phorbol 12-myristate 13-acetate (PMA, 200 nM) as a differentiation inducing agent into macrophage. Then acetyl LDL 400 μg/mL prepared separately from plasma-derived LDL of genetically hyperlipidemia rabbit (KHC rabbit, Japan Laboratory Animals, Inc.) was added. In addition, a test compound dissolved in DMSO and diluted with FBS-containing RPMI-1640 medium or a control solvent was added. After culture in a carbon dioxide incubator for 3 days, the cells were washed with phosphate buffered physiological saline (pH 7.0), and the lipid was extracted with n-hexane/isopropanol (3:2). The cells were dissolved in 1M-NaOH and the protein amount was measured. The free cholesterol and cholesterol ester in a lipid extraction sample was measured by the method of Kunitomo et al. (1983). The cholesterol ester was compared between the control cell and the test compound-treated cells, and the cholesterol ester accumulation inhibitory rate of the test compound was calculated.

Series [3] relates to cholesterol secretion from the liver. In words: Mouse hepatic lipid secretion inhibitory effect (Triton WR-1339 method). In kind it is in vivo, Slc:ICR mice. The settings on record: 10 mg/kg/day oral, plasma TC change in 3 hr after Triton WR-1339, read-out: Cholesterol secretion inhibitory rate (%). As to the method:
About 5 week-old male Slc:ICR mice (Japan SLC) were fed only in the daytime (9:00-18:00) and preliminarily bred for one week. During this period, free access to tap water was allowed during the nighttime, too. The mice were divided into a control group and a test compound group at 6 mice per group, such that the average and standard deviation of the body weight became almost the same. The blood (ca 80 μL) was drawn from the orbital venous plexus using a glass capillary under anesthesia, and at 30 min after blood drawing, a test compound suspended in 5% gum arabic solution in advance was orally administered at a dose of 10 mg/kg. At 30 min after the administration, Triton WR-1339 60 mg/mL solution prepared with physiological saline in advance was administered to the tail vein at a dose of 5 mL/kg. At 3 hr after the Triton WR-1339 administration, the blood was drawn again from the orbital venous plexus. Plasma was separated from the drawn blood, and plasma TC was measured using a commercially available measurement kit (Wako Pure Chemical Industries, Ltd.). Changes in blood-concentration in 3 hr after Triton WR-1339 administration were calculated and taken as the rate of cholesterol secretion from the liver. The rate of secretion was compared between the control group and the test compound group and the secretion inhibitory rate of the test compound was calculated.

A further series deals with LDL. As to the kind of experiment: In vitro LDL peroxidation inhibitory effect (copper sulfate, thiobarbituric acid method). The conditions noted are these: Concentration: 10^-5 M; malondialdehyde production, 5 μM copper sulfate, 37° C., 1 hr. It is filed as biochemical, KHC rabbits.

Experimental for LDL: The blood was drawn from the auricular artery of KHC rabbits weighing about 3 kg and LDL was separated by a conventional method. A solution (5 μL) of test compound in DMSO or DMSO was added (final concentration 10^−5 M) to LDL suspension (0.5 mg protein/mL, 0.5 mL), aqueous copper sulfate solution (5 μL, final concentration 5 μM) was added, and the mixture was incubated at 37° C. for 1 hr. After the completion of the incubation, EDTA·2Na solution (5 μL, final concentration 1 mM) was added, and lipoperoxide concentration in the-sample was measured by the Yagi's method. To be specific, lipoperoxide in the sample was color developed by the thiobarbituric acid method, measured as malondialdehyde and the activity of the test compound was shown by malondialdehyde production inhibitory rate (%) [to what level the production of malondialdehyde was inhibited as compared to control].

As for `CCCCCCN1CCc2c(C)c(NS(C)(=O)=O)c(C)c(NC(=O)C(C)(C)C)c21` [Example 22, N-(1-hexyl-5-methanesulfonylamino-4,6-dimethylindolin-7-yl)-2,2-dimethylpropanamide], the “Maximum concentration in blood” value in series [1] amounted to 1.12 µg/mL. As for `Cc1c2c(c(NC(=O)C(C)(C)C)c(C)c1NS(C)(=O)=O)N(C1CCCC1)CC2` [Example 41, N-(1-cyclopentyl-5-methanesulfonylamino-4,6-dimethylindolin-7-yl)-2,2-dimethylpropanamide], the “Hepatic ACAT inhibitory ratio (%)” value in the series on hepatic ACAT is 97.3%. Besides, the inhibition at 1 µM in series [2] amounted to 76.5%. Also, in series [3], the inhibition in vivo at 10 mg/kg amounted to 58.5%. Besides, in series [1], the “Maximum concentration in blood” value came out at 2.03 µg/mL.

Take `Cc1c2c(c(NC(=O)C(C)(C)C)c(C)c1NS(C)(=O)=O)N(CC(C)C)CC2` [Example 15, N-[5-methanesulfonylamino-4,6-dimethyl-1-(2-methylpropyl)indolin-7-yl]-2,2-dimethylpropanamide]: in series [1], the “Maximum concentration in blood” value was determined as 1.68 µg/mL. Still for that read-out and setting: as for `CCN1CCc2c(C)c(NS(C)(=O)=O)c(C)c(NC(=O)C(C)(C)C)c21` [Example 16, N-(1-ethyl-5-methanesulfonylamino-4,6-dimethylindolin-7-yl)-2,2-dimethylpropanamide], the figure is 2.90 µg/mL.

As to `Cc1c2c(c(NC(=O)C(C)(C)C)c(C)c1NS(C)(=O)=O)N(CCC(C)C)CC2` [Example 13, N-[5-methanesulfonylamino-4,6-dimethyl-1-(3-methylbutyl)indolin-7-yl]-2,2-dimethylpropanamide], in series [1], the “Maximum concentration in blood” value turned out to be 1.36 µg/mL.

For the molecule `CCCCCN1CCc2c(C)c(NS(C)(=O)=O)c(C)c(NC(=O)C(C)(C)C)c21` [Example 11, N-(5-methanesulfonylamino-4,6-dimethyl-1-pentylindolin-7-yl)-2,2-dimethylpropanamide], the “Maximum concentration in blood” value in series [1] worked out at 1.98 µg/mL. With `CCCN1CCc2c(C)c(NS(C)(=O)=O)c(C)c(NC(=O)C(C)(C)C)c21` [Example 14, N-(5-methanesulfonylamino-4,6-dimethyl-1-propylindolin-7-yl)-2,2-dimethylpropanamide], the “Maximum concentration in blood” value in series [1] was determined as 2.30 µg/mL. In the case of `CCCN1CCc2c(C)c(NS(N)(=O)=O)c(C)c(NC(=O)C(C)(C)C)c21.Cl` [Example 17, N-(4,6-dimethyl-1-propyl-5-sulfamoylaminoindolin-7-yl)-2,2-dimethylpropanamide hydrochloride], the “Hepatic ACAT inhibitory ratio (%)” value with hepatic ACAT was found to be 86.4%. In series [3], the inhibition in vivo at 10 mg/kg is 44.4%. As to `CCCCCN1CCc2c(C)c(NS(N)(=O)=O)c(C)c(NC(=O)C(C)(C)C)c21.Cl` [Example 18, N-(4,6-dimethyl-1-pentyl-5-sulfamoylaminoindolin-7-yl)-2,2-dimethylpropanamide hydrochloride], the “Hepatic ACAT inhibitory ratio (%)” value in the series on hepatic ACAT stood at 96.7%. In addition, the inhibition at 1 µM in series [2] worked out at 93%. For the same molecule, in series [3], the inhibition in vivo at 10 mg/kg was 41.4%.

As for `CCCN1c2c(c(C)c(NS(N)(=O)=O)c(C)c2NC(=O)C(C)(C)C)CC1C.Cl` (stereo not shown) [Example 53, N-(2,4,6-trimethyl-1-propyl-5-sulfamoylaminoindolin-7-yl)-2,2-dimethylpropanamide hydrochloride], the inhibition at 1 µM in series [2] worked out at 70%. For the same molecule, the “Maximum concentration in blood” value in series [1] is 1.31 µg/mL. Take `CCCCN1CCc2c(C)c(NS(C)(=O)=O)c(C)c(NC(=O)C(C)(C)C)c21` [Example 12, N-(1-butyl-5-methanesulfonylamino-4,6-dimethylindolin-7-yl)-2,2-dimethylpropanamide]: in series [1], the “Maximum concentration in blood” value turned out to be 3.05 µg/mL. Take `CC(C)(Sc1cc(C(C)(C)C)c(O)c(C(C)(C)C)c1)Sc1cc(C(C)(C)C)c(O)c(C(C)(C)C)c1` [Probucol]: the “LDL peroxidation inhibitory ratio (%)” value with LDL stood at 33.8%.
